≈ marks a conversion by molar mass, not a printed value. No end group written: not given here.
How the values were obtained:
[1] = target: KRas (Homo sapiens, UniProt P01116, G12V); assay: Yeast surface display binding to KRas (FACS)
[2] = Circular dichroism spectra and thermal melting at 222 nm; type: physicochemical; settings: for effect of mutation on peptide secondary structure by CD: pH 12, compared to 225-3; for Tm: CD at 222 nm
[3] = target: T1, RalA (Homo sapiens, UniProt P11233); assay: Yeast surface display binding to RalA; settings: FIG. 38A-B
T1 sequence (P11233 1-206): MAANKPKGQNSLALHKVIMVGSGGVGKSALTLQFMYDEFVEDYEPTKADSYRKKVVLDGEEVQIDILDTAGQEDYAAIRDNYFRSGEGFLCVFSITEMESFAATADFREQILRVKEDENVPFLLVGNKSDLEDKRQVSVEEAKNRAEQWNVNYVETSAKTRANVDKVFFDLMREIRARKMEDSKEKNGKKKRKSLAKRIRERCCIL
Text: (§1) Experimental for yeast display assays were similar to those used for FIG. 9. MY01 peptide of SEQ ID NO: 43 corresponds to the indicated high-binding population in FIG. 38C. Purification of the RalA protein was similar to the methods used for KRas constructs as discussed previously.

[4] = system: H358 lung adenocarcinoma cells; assay: Live-cell confocal microscopy with fluorescein-labeled peptides; type: cell-based, human; settings: 5 uM, compared to SEQ ID NO: 10
Experimental: Human tumor cell lines (e.g., H358 or HPAF-II) were seeded into LabTek II culture chambers in DMEM media supplemented with 10% fetal calf serum and grown overnight at 37° C. under standard cell culture conditions. The following day, media was replaced with media containing 5 uM of fluorescein-labeled peptide and incubated for 4 hours at 37° C. The cells were washed, stained with NucBlue Hoechst 33342 and Dextran 10k Alexa647, then imaged on a confocal microscope. The fluorescent peptides were visualized with a 488 nm laser and is shown in green in FIGS. 34A-B.

[5] = system: endogenous Ras in Capan-1 cell lysate; assay: Peptide pulldown of Ras in Capan-1 cell lysate; type: binding, human; settings: for pulldown of endogenous Ras by biotinylated peptide: 5 μM peptide, streptavidin beads, western blot
[6] = target: GppNHp-bound Rapla (Homo sapiens, UniProt P62834); settings: Rapla versus Ras
[7] = not told
[8] = Solubility of peptides in buffer
[9] = target: Myc/Max heterodimer (Homo sapiens, UniProt P01106+P61244); assay: Yeast surface display binding to Myc/Max; settings: FIG. 38C
Text: as §1
Purification of the Myc/Max proteins was done as follows. A bicistronic pET vector containing His6-yBBr-TEV-Myc (residues 353-434) and untagged Max (residues 22-102) was transformed into chemically competent BL21 cells. The cells were grown to OD600=0.7, induced with 0.25 mM IPTG for 5 hours at 30° C., then harvested and resuspended in lysis buffer (20 mM HEPES pH 7.5, 500 mM KCl, 5% glycerol) prior to snap-freezing in liquid nitrogen. For purification, the pellet was thawed, raised to 40 ml in the same buffer, and mixed with a Roche Complete EDTA-free protease inhibitor tablet. The cells were lysed with a tip sonicator (VirSonic, 6 cycles of 10 s on, 15 s off at 6.5 power level), then pelleted at 30,000×g for 30 minutes and filtered through a 0.45 uM Tuffryn membrane (Pall Corporation). The clarified lysate was added to 2 ml of HisPur Ni-NTA resin (Thermo Pierce) that had been equilibrated with the same buffer, and drained by gravity. The column was washed with 20 ml of buffer, then protein was eluted with buffer containing 150 mM imidazole and some protease inhibitor. […]

[10] = target: Ras (Homo sapiens, UniProt P01116, G12V); assay: Ras binding of disulfide-protected peptide on addition of glutathione; settings: Cys protected with 2,2′-Dipyridyldisulfide; 5 mM reduced glutathione
Text: This cysteine is uncaged in the presence of […] glutathione levels to form the disulfide-bonded species, which is a better Ras binder. […] The experimentals are the similar to those described for FIG. 19.

[11] = target: T2, endogenous Ras / Raf RBD interaction (Homo sapiens, UniProt P01116, G12V); assay: GST-Raf RBD pulldown of Ras in Capan-1 cell lysate, competition by peptide; type: biochemical; settings: lysate pre-incubated with 10 μM peptide
T2 construct: endogenous in cells; host or cells: Capan-1 lysate (Ras); the GST-Raf RBD was made in E. coli BL21 Rosetta I pLysS from pGEX-5X

[12] = target: KRas (G12V) loaded with mant-GppNHp (Homo sapiens, UniProt P01116, G12V); assay: Mant nucleotide dissociation assay; type: biochemical; settings: 1 μM Raf or peptide, 500 nM Ras, excess GppNHp
[13] = target: KRas (G12V).GppNHp (Homo sapiens, UniProt P01116, G12V); assay: Fluorescence polarization binding of FITC-labeled 225-3 and its alanine mutants to KRas; settings: alanine mutants of 225-3

## GCGGPRRPRYPGDDASIEDLHEYWARLWNYLYRVA [225-1 A30R]
[1]; 500 nM each of Ras.GTP and Ras.GDP, two-colour FACS
  selectivity KRas(GTP) vs KRas(GDP): more selective for KRas (GTP) than 225-1

## GCGGPRRPRRPRYPGDDASIEDLHEYAARLWNYLYAVA [Peptide W21A]
[2]
  effect of mutation on peptide secondary structure by CD: significant destabilizing effect

## GPRRPRCPGDDASIRDLVMYWYRLYFYLEAVA [SEQ ID NO: 45]
[1]; yeast surface display, FIG. 38
  binding to KRas: binds both RalA and KRas
[3]
  binding to RalA: binds both RalA and KRas

## GCGGPRRPRYPGDAASIAALHAYWARLWNYLYRVA [SEQ ID NO: 28]
[4]
  solubility / aggregates in microscopy: increased solubility

## GCGGPRRPRRPRYPGDDASIEDLHEYWARLANYLYAVA [Peptide W25A]
[2]
  effect of mutation on peptide secondary structure by CD: significant destabilizing effect

## I14A: single alanine point mutant I14A of the 225-3 peptide (GCGGPRRPRRPRYPGDDASAEDLHEYWARLWNYLYAVA) [Peptide I14A]
[2]
  effect of mutation on peptide secondary structure by CD: significant destabilizing effect

## CC[C@H](C)[C@H](NC(=O)[C@H](CO)NC(=O)[C@H](C)NC(=O)[C@H](CC(=O)O)NC(=O)[C@H](CC(=O)O)NC(=O)CNC(=O)[C@@H]1CCCN1C(=O)[C@H](Cc1ccc(O)cc1)NC(=O)[C@H](CCCNC(=N)N)NC(=O)[C@@H]1CCCN1C(=O)[C@H](CCCNC(=N)N)NC(=O)[C@H](CCCNC(=N)N)NC(=O)[C@@H]1CCCN1C(=O)[C@H](CCCNC(=N)N)NC(=O)[C@H](CCCNC(=N)N)NC(=O)[C@@H]1CCCN1C(=O)CNC(=O)CNC(=O)[C@H](CS)NC(=O)CN)C(=O)N[C@@H](CCC(=O)O)C(=O)N[C@@H](CC(=O)O)C(=O)N[C@@H](CC(C)C)C(=O)N[C@@H](Cc1c[nH]cn1)C(=O)N[C@@H](CCC(=O)O)C(=O)N[C@@H](Cc1ccc(O)cc1)C(=O)N[C@@H](Cc1c[nH]c2ccccc12)C(=O)N[C@@H](C)C(=O)N[C@@H](CCCNC(=N)N)C(=O)N[C@@H](CC(C)C)C(=O)N[C@@H](Cc1c[nH]c2ccccc12)C(=O)N[C@@H](CC(N)=O)C(=O)N[C@@H](Cc1ccc(O)cc1)C(=O)N[C@@H](CC(C)C)C(=O)N[C@@H](Cc1ccc(O)cc1)C(=O)N[C@@H](C)C(=O)N[C@H](C(=O)N[C@@H](C)C(=O)O)C(C)C [Peptide 225-3]
[5]
  pulldown of endogenous Ras by biotinylated peptide: pulled down Ras
[5]; lysate pre-incubated with Raf RBD (3 μM)
  pulldown of endogenous Ras by biotinylated peptide after Raf RBD pre-incubation: not when the lysate was pre-incubated with the Raf RBD
[6]
  binding weaker than to Ras: more than 100 fold
[2]; pH 4.5
  Tm: 57 °C
[2]; pH 12
  Tm: 46.2 °C
[7]
  cell permeability: somewhat cell permeable

## CC[C@H](C)[C@H](NC(=O)[C@H](CO)NC(=O)[C@H](C)NC(=O)[C@H](CC(=O)O)NC(=O)[C@H](CC(=O)O)NC(=O)CNC(=O)[C@@H]1CCCN1C(=O)[C@H](Cc1ccc(O)cc1)NC(=O)[C@H](CCCNC(=N)N)NC(=O)[C@@H]1CCCN1C(=O)[C@H](CCCNC(=N)N)NC(=O)[C@H](CCCNC(=N)N)NC(=O)[C@@H]1CCCN1C(=O)CNC(=O)CNC(=O)[C@H](CS)NC(=O)CN)C(=O)N[C@@H](CCC(=O)O)C(=O)N[C@@H](CC(=O)O)C(=O)N[C@@H](CC(C)C)C(=O)N[C@@H](Cc1c[nH]cn1)C(=O)N[C@@H](CCC(=O)O)C(=O)N[C@@H](Cc1ccc(O)cc1)C(=O)N[C@@H](Cc1c[nH]c2ccccc12)C(=O)N[C@@H](C)C(=O)N[C@@H](CCCNC(=N)N)C(=O)N[C@@H](CC(C)C)C(=O)N[C@@H](Cc1c[nH]c2ccccc12)C(=O)N[C@@H](CC(N)=O)C(=O)N[C@@H](Cc1ccc(O)cc1)C(=O)N[C@@H](CC(C)C)C(=O)N[C@@H](Cc1ccc(O)cc1)C(=O)N[C@@H](C)C(=O)N[C@H](C(=O)N[C@@H](C)C(=O)O)C(C)C [Peptide 225-1]
[8]
  solubility: 100 to 200 µM (≈ 407 to 814 µg/mL)

## GPRRPRCPGDDASISDLLLYWLRLDRYLWAVA [SEQ ID NO: 44]
[3]
  binding to RalA: binds

## GPRRPRCPGDDASIRDLLKYWWRLRLYLLAVA [SEQ ID NO: 43]
[9]
  binding to Myc/Max: binds

## PRRPRCPGHAASIAALHAYWARLWNYLYRVR [Peptide 291-Q3]
[10]
  change in Ras binding upon addition of reduced glutathione: increase in Ras binding

## GCGGPRRPRRPRYPGDDASIEDLHEYWARLWAYLYAVA [Peptide N26A]
[5]
  pulldown of endogenous Ras by biotinylated peptide: not pulled down
[11]
  effect on pulldown of Ras by GST-tagged Raf RBD: did not disrupt this pulldown
[12]
  effect on rate of mantGppNHp dissociation from KRas: did not decrease the rate of dissociation
[2]
  effect of mutation on peptide secondary structure by CD: unchanged compared to 225-3
[13]
  reduction in measured binding affinity relative to 225-3: at least 100 fold

## GCGGPRRPRYPGDDACEEDLHEYWARLWNYLYAVA [225-1 S13C/I14E]
[1]; 5 nM KRas, mutant pre-incubated with free 225-1
  binding of yeast-displayed peptide to KRas: binds Ras with increased affinity
